Experimental data: paper PMC6997888, “Salicylic Acid Targets Protein Phosphatase 2A to Attenuate Growth in Plants” (Current Biology, 2020)

Tests used:
PP2AA3 = molecular target: T1, PP2AA3 (Arabidopsis thaliana, UniProt Q38951); test: SPR, steady state; SA-f immobilized on CM5 chip, His-PP2AA3 flowed over; format: binding
T1 construct: recombinant His-PP2AA3 (pET28a, coding region)
T1 sequence (Q38951 1-587): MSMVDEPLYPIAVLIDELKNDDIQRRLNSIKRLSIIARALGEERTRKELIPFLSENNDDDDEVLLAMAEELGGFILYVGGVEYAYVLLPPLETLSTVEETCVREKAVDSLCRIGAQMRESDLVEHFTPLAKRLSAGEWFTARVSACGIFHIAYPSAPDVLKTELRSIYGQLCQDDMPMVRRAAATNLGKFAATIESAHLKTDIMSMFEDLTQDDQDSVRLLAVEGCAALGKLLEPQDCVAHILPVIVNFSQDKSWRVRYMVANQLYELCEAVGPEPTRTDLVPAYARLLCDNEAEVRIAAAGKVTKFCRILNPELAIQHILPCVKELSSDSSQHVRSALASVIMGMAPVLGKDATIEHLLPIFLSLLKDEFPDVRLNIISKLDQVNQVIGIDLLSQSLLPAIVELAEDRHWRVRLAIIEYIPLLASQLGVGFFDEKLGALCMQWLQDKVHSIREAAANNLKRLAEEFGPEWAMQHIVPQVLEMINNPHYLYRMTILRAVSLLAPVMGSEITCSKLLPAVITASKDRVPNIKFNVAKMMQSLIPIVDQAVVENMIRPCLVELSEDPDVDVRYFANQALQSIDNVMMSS
From the text: SPR, steady state; SA-f immobilized on CM5 chip, His-PP2AA3 flowed over on PP2AA3 | The same sensor chip as above was used, and different concentrations of His-PP2AA3 were applied.

PP2AA1 = molecular target: T2, PP2AA1 (Arabidopsis thaliana, UniProt Q38845); test: SPR, steady state; SA-f immobilized on CM5 chip, His-PP2AA1 flowed over; format: binding
T2 construct: recombinant His-PP2AA1 (pET28a, coding region)
T2 sequence (Q38845 1-588): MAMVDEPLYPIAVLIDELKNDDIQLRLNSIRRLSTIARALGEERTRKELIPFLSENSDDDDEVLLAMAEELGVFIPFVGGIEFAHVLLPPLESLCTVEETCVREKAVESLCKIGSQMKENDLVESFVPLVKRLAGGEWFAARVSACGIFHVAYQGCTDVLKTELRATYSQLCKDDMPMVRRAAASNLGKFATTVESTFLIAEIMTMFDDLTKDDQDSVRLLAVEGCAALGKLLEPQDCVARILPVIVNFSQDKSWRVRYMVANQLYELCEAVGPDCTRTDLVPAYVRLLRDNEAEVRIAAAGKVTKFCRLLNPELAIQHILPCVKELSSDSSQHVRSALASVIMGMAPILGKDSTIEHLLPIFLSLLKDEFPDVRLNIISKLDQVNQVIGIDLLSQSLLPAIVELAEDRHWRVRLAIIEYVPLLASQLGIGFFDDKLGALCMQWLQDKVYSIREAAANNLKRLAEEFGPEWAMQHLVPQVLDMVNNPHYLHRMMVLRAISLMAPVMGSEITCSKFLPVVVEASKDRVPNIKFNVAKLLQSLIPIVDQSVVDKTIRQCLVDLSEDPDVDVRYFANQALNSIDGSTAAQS
From the text: SPR, steady state; SA-f immobilized on CM5 chip, His-PP2AA1 flowed over on PP2AA1 | An active synthetic SA analog (SA-f) was immobilized on a CM-5 sensor chip, and different concentrations of His-PP2AA1 were applied

NCCCCCOc1ccc(O)c(C(=O)O)c1 [SA-f, 5-((5-aminopentyl)oxy)-2-hydroxybenzoic acid]
Kd (PP2AA3): 1.92 µM
Kd (PP2AA1): 3.62 µM
